Laboratory results: US20140242707A1, “Compositions and Methods for Diagnosing Hypercoagulability and Hypocoagulability” (Philadelphia Health & Education Corporation d/b/a Drexel …, priority 2011, published 2014)
Where two headings read alike, the source gives them in different places.

How the values were obtained:
[1] = test system: Smoker and normal subject plasma; assay: Thrombelastography of smoker and normal subject plasma (COHF assay); format: biochemical, human; details: for final elastic modulus (G), within group vs Control: smoker and normal plasma, 100 μM CORM-2 or 30 mM PHA
Description: Smoking subjects, free of thrombotic or hemorrhagic disease, between the ages of 19 to 50 years of age were recruited (n=20). All comparative data are presented as mean±SD. The male:female ratio (M:F) was 14:6, and the smoking group's age was 32.8±8.7 years. This cohort smoked 1.0±0.4 packs of cigarettes per day. After written consent was obtained, the smoking subjects verified that they had smoked two cigarettes within 90 minutes prior to presentation as they would ordinarily do during the day. Noninvasive pulse oximetry was performed, with COHb found to be 5.0±2.7% for the smoking cohort. Whole blood was obtained from the smokers via venipuncture of an antecubital or hand vein and was anticoagulated with sodium citrate (9 parts blood to 1 part citrate). The blood was immediately centrifuged at 3000×g for 15 minutes at room temperature, with plasma decanted, aliquoted and stored at −80° C. prior to experimentation. Frozen, citrated plasma collected from 20 nonsmoking, age-matched normal subjects (30.7±8.7 years, M:F of 10:10) was obtained from a commercial source. Smoker and normal subject plasma was thawed and subjected to thrombelastographic analyses as previously described for 15 min at 37° C. (Nielsen et al., 2011, Blood Coagul Fibrinolysis, 22: 657-661). […] This pattern of enhanced clot development without decreased time to onset of coagulation is typical of CO exposure (Nielsen et al., 2009, Blood Coagul Fibrinolysis, 20: 377-380; Nielsen et al., 2010, Blood Coagul Fibrinolysis, 21: 349-353; Nielsen et al., 2011, Blood Coagul Fibrinolysis, 22: 657-661). […] Using a modification of the previously described assay (Nielsen et al., 2011, Blood Coagul Fibrinolysis, 22: 657-661), hypercoagulability was defined as a G value 95% confidence interval value of the normal cohort (2720 dynes/cm^2). For COHF likely to be present, G values had to increase≦the average percent seen in normal subjects (≦78%) in the presence of CORM-2, and G values had to decrease≦the average normal percent (≦74%) in the presence of PHA. Using these definitions, 10 smokers were hypercoagulable; 9 smokers had kinetically detectable COHF; and 5 were both hypercoagulable and COHF positive (25% of the cohort). Of interest, 3 smokers had neither hypercoagulability nor detectable COHF (15% of the cohort), with the remaining 12 smokers either hypercoagulable only or COHF positive only (60% of the population). […]

[2] = test system: human or rabbit plasma; details: 100 μM CORM-2, humans or rabbits; cited from earlier work
[3] = test system: ear bleeding time; details: CORM-2 intravenously, cited from earlier work
[4] = test system: human plasma; details: fibrinolytic environment; cited from earlier work

Row | SMILES | average percent increase in G ([1]; normal subjects, 100 μM CORM-2) [%] | final elastic modulus (G), within group vs Control [1] | increase in MRTG [2] | increase in TTG [2] | ear bleeding time ([3]; rabbits administered intravenous tPA) | ear bleeding time ([3]; rabbits with platelet inhibition by aspirin and clopidogrel) | increase in MRTG [4] [%] | increase in TTG [4] [%] | average percent decrease in G ([1]; normal subjects, 30 mM PHA) [%] | decrease in MRTG [4] [%] | decrease in TTG [4] [%]
1 | [C-]#[O+].[C-]#[O+].[C-]#[O+].[C-]#[O+].[C-]#[O+].[C-]#[O+].[Cl][Ru][Cl].[Cl][Ru][Cl] [CORM-2, tricarbonyldichlororuthenium (II) dimer] | 78 | significantly increased | 64-100% | 51-68% | near normal | normal | 120 | 113 | – | – | –
2 | ONc1ccccc1 [PHA, phenylhydroxylamine] | – | significantly decreased | – | – | – | – | – | – | 74 | 30 | 21
